Reference: patent publication US20140066367A1, “SUBCUTANEOUS DELIVERY OF A LONG-ACTING NATRIURETIC PEPTIDE” (Mayo Foundation for Medical Education and Research, priority 2012, published 2014)

Key:
[1] = Plasma ANP immunoreactivity and pharmacokinetics after subcutaneous administration to conscious canines; format: in vivo, canine
Protocol: (§1) Studies were performed in accordance with the Animal Welfare Act and with approval of the Mayo Clinic Institutional Animal Care and Use Committee. A randomized crossover study was designed in which equimolar (2.225 nmol/kg) SQ M-ANP and SQ ANP were administered to conscious healthy adult canines (n=5) at 2-week intervals. Vehicle (SQ 0.9% normal saline) was administered to 3 canines serving as a control group. At least 7 days prior to the above studies, an arterial port was placed in the femoral artery as previously described (Cataliotti et al. (2008) Circulation, 118:1729-1736). After recovery from arterial port placement, canines were fed a fixed sodium diet of 100 mEq/d with ad libitum access to water for 5 days before initiation of studies. During this time, canines were acclimatized to standing calm in a sling. On the day of the experiment, the dogs were fasted and placed in a sling in a quiet room. Thirty minutes before the beginning of the experiment, the femoral artery port was accessed for continuous BP and heart rate assessment (iWorx, Dover, N.H.). After 30 minutes of acclimatization, the study protocol was started. Subcutaneous M-ANP, ANP or vehicle was administered at time 0 minutes. At time −15, 0, 5, 10, 15, 30, 45, 60, 75, 90, 120, 150, 180, 210, 240, 270, and 300 minutes, mean arterial pressure (MAP) and heart rate samples were obtained over a period of 1 minute. […]
(§2) Blood samples were collected in chilled EDTA tubes, immediately placed on ice, and centrifuged at 4° C. […] After extraction, plasma ANP immunoreactivity (Phoenix Pharmaceuticals, Burlingame, Calif.) was assessed by radioimmunoassay as previously described (Burnett et al. (1986) Science, 231:1145-1147). […] Plasma cGMP (PerkinElmer, Waltham, Mass.) was assessed by radioimmunoassay (Steiner et al., supra).
(§3) Pharmacokinetic profile of M-ANP compared to ANP was determined using PK Solutions software (Summit PK, Montrose, Colo.). Specific parameters that were determined included plasma half-life, maximum concentration (Cmax) and area under the curve (AUC).

cGMP = assay: Plasma cGMP after subcutaneous administration to conscious canines; format: in vivo, canine
Protocol: as §1, §2, §3

[2] = Mean arterial pressure and heart rate after subcutaneous administration to conscious canines; format: in vivo, canine; settings: SQ
Protocol: as §1

[3] = infusion of a low dose, normal dogs; cited from earlier work
[4] = plasma cGMP, subcutaneous, equimolar 2.225 nmol/kg, conscious canines

time ANP immunoreactivity remained significantly elevated ([1]; SQ, canines): 45 min
time of peak ANP immunoreactivity after administration ([1]; SQ, canines): 15 min
ANPi AUC ([1]; subcutaneous, equimolar 2.225 nmol/kg, conscious canines): 10.8 ± 2.4 pmol·min/mL
SMILES: CC[C@H](C)[C@@H]1NC(=O)[C@H](CCCNC(=N)N)NC(=O)[C@H](CC(=O)O)NC(=O)[C@H](CCSC)NC(=O)[C@H](CCCNC(=N)N)NC(=O)CNC(=O)CNC(=O)[C@H](Cc2ccccc2)NC(=O)[C@@H](NC(=O)[C@H](CO)NC(=O)[C@H](CO)NC(=O)[C@H](CCCNC(=N)N)NC(=O)[C@H](CCCNC(=N)N)NC(=O)[C@H](CC(C)C)NC(=O)[C@@H](N)CO)CSSC[C@@H](C(=O)N[C@@H](CC(N)=O)C(=O)N[C@@H](CO)C(=O)N[C@@H](Cc2ccccc2)C(=O)N[C@@H](CCCNC(=N)N)C(=O)N[C@@H](Cc2ccc(O)cc2)C(=O)O)NC(=O)CNC(=O)[C@H](CC(C)C)NC(=O)CNC(=O)[C@H](CO)NC(=O)[C@H](CCC(N)=O)NC(=O)[C@H](C)NC(=O)CNC1=O [ANP]
duration of sustained cGMP activation (cGMP; SQ, canines): 60 min
cGMP AUC (cGMP; [4]): 676 ± 211 pmol·min/mL
cGMP Cmax (cGMP; [4]): 14.7 ± 1.9 pmol/mL
effect on MAP [2]: no significant reduction in MAP
change in glomerular filtration rate (GFR) or MAP [3]: No change
